Data reported in patent US11726087B2, “Methods, compositions, and kits for detection of aspergillosis” (priority 2013, dated 2023).
“Also recorded” adds a separate entry of the source. Positions of bridges follow the written chain, without caps; N, C: chain ends. Non-standard residues stand in square brackets, D forms with d. Residues, ends and D or L forms follow the SMILES beside them. No end group written: not given here. *: point of attachment. 5FAM = O=C1OC2(c3ccc(O)cc3Oc3cc(O)ccc32)c2ccc(C(=O)*)cc21; DABCYL = 4-(dimethylaminoazo)benzene-4-carboxy; Sta = CC(C)C[C@H](N)[C@@H](O)CC(=O)O; Isovaleryl = CC(C)CC(=O)*

Assays:
Type in all cases: biochemical, A. fumigatus
recombinant Asp f2 = molecular target: T1, recombinant Asp f2 (Aspergillus fumigatus, UniProt P79017); details: for effect of protease inhibitors on proteolytic activity of recombinant Asp f2: 50 μM inhibitor, FluHSA2 substrate
T1 construct: region fused to Asp f2 residues 32-310 (codon optimized for expression in E. coli); Trx-SMT3 N-terminal linker (thioredoxin, His6 tags, SMT3) (N, cleaved yes); made in house; host or cells: Escherichia coli
T1 sequence (P79017 32-310): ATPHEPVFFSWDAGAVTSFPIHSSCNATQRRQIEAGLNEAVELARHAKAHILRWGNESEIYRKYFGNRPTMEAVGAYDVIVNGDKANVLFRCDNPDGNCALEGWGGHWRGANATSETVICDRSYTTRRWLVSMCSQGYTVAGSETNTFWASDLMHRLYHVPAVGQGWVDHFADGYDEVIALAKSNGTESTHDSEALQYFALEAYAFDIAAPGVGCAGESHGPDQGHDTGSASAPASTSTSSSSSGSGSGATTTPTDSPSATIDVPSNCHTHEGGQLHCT
Experimental: (§1) A novel bead-based assay was developed for detecting Asp f2 proteolytic activity. […] Cyanogen bromide (CNBr)-activated sepharose beads were swelled in ice-cold HCl (1 mM). Beads (1.0 g) were incubated with 3.0 mg of 5D7A1 in Coupling Buffer (NaHCO3, 0.1 M and NaCl, 0.5 M, pH 8.3-8.5) and rotated for two hours at 22° C. or for 16 hours at 4° C. Beads were blocked with 0.1 M ethanolamine, pH 8.0, then washed with buffers of alternating pH (first with Coupling Buffer, pH 8.5, then with a low pH buffer (sodium acetate, 0.1 M, NaCl, 0.5 M, pH 4.0)). These dual washes were repeated four times. Lastly, beads were resuspended in ammonium bicarbonate (100 mM), lyophilized and stored at 4° C.
(§2) FluHSA2 comprises the peptide of SEQ ID NO:5 conjugated to 5-Fam at the alpha-amino group of the threonine at the N-terminus of the peptide and to DABCYL at the epsilon amino group of the lysine side chain at the C-terminus of the peptide. Upon excitation, the DABCYL suppresses the fluorescence emission of the 5-Fam labeled peptides when the peptides are not cleaved and the fluorescent label and DABCYL remain close together. However, when the peptide is cleaved by Asp f2, the fluorescent label and DABCYL are separated and the fluorescent label emits light energy upon excitation. For each replicate (including negative controls), 100 μL of the antibody coupled bead suspension was transferred into 0.5 mL reaction buffer (FluHSA2 (FIG. 4-5; SEQ ID NO: 5), […] sodium phosphate, 25 mM, NaCl, 100 mM, pH 7.2. Tubes were incubated in the dark for two hours at 37° C. or for 16 hours at 22° C. on a rotary shaker at 250 rpm. Fluorescence was measured at Excitation (Ex) 485 nm/Emission (Em) 535 nm in a black 96-well micro titer plate.
The fusion protein comprised an N-terminal linker (Trx-SMT3 N-terminal linker) region fused to Asp f2 residues 32-310 (codon optimized for expression in E. coli; FIG. 14) via a Ubiquitin-like-specific protease 1 (ULP1) cleavage site located between SMT3 and Asp f2. The Trx-SMT3 N-terminal linker contained the following from N- to C-terminus: thioredoxin (Trx)-glycine-serine-linker-His6-tag-linkers-another His6-tag-SMT3. Trx was added to improve solubility of the construct and a yeast SUMO (Smt3) was added to help enhance expression and promote solubility of Asp f2. Following purification using a His6-tag specific nickel-NTA column, Asp f2 was activated by cleaving the Trx-SMT3 N-terminal linker off using UPL1.
(§3) Diethylpyrocarbonate (DEPC) derivatization of histidines results in the chemical modification of histidines in proteins and is used to study the importance of histidyl residues in enzymes. Using the materials and methods described in Example 1, anti-Asp f2 (5D7A1)-bound beads were incubated with native or recombinant Asp f2 in the presence or absence of DEPC (30 μM) and incubated for one hour at 22° C. prior to reaction with FluHSA2. Samples were then incubated with 10 μM of FluHSA2 for 16 hours at 22° C. and fluorescence was measured as described above. Cleavage of FluHSA2 was detected in the presence or absence of DEPC to test the proteolytic activity of native and recombinant Asp f2.
Anti-Asp f2 (5D7A1)-bound beads were incubated with native or recombinant Asp f2 in the presence or absence of 0.5 mM zinc chloride or 50 μM of various inhibitors. Samples were incubated with FluHSA2 and fluorescence was measured as described above.

native Asp f2 [1] = molecular target: T2, native Asp f2 (Aspergillus fumigatus, UniProt P79017); details: for effect of protease inhibitors on proteolytic activity of native Asp f2: 50 μM inhibitor, FluHSA2 substrate
T2 construct: beads were incubated with native or recombinant Asp f2; endogenous in cells; host or cells: Aspergillus fumigatus (preparation of the native protein not described for this assay)
T2 sequence (P79017 32-310): as above
Experimental: as §1, §2, §3
Anti-Asp f2 (5D7A1)-bound beads were incubated with native or recombinant Asp f2 in the presence or absence of 0.5 mM zinc chloride or 50 μM of various inhibitors. Samples were incubated with FluHSA2 and fluorescence was measured as described above. […] Various Asp f2 histidine residues, including those located in the ^186HRLYH motif, were mutated to alanine (FIG. 12; H186A and H190A are located in the HRLYH motif), and mutant or wild-type Asp f2 was incubated with anti-Asp f2 (5D7A1)-bound beads as described above, followed by incubation with FluHSA2.

native Asp f2 [2] = molecular target: T2, native Asp f2; assay: Cleavage of fluorogenic substrates by bead-bound native Asp f2
Experimental: Cleavage specificity of the novel FluHSA peptide was tested using Asp f2 and another Aspergillus protein, Asp f3. CNBr-activated sepharose beads were prepared as described in Example 1 and incubated with either the anti-Asp f2 monoclonal antibody 5D7A1 or an anti-Asp f3 rabbit polyclonal antibody. Anti-Asp f2-immobilized beads were incubated with native Asp f2 and anti-Asp f3-immobilized beads were incubated with native Asp f3. Samples were incubated with FluHSA2 (10 μM) for 16 hours at 22° C. Fluorescence was measured at Ex 485 nm/Em 535 nm in a black 96-well micro titer plate as described above.
The cleavage products of FluHSA2 after reaction with native Asp f2 were investigated by mass spectrometric analysis (MALDI spectra) (FIG. 5). Cleavage by Asp f2 occurred in the C-terminal linear tail section of the peptide resulting in at least 5 cleavage products (FIG. 5).
Peptides other than FluHSA2 were tested for cleavage by Asp f2.

[3] = DEPC 30 μM, one hour at 22° C. before FluHSA2 10 μM, 16 hours at 22° C.

Question: Which “effect of protease inhibitors on proteolytic activity of recombinant Asp f2” value (recombinant Asp f2) does the source give for `c1cnc2c(c1)ccc1cccnc12` [1-10-phenanthroline] here?
Answer: suppressed

Question: What about the “effect of protease inhibitors on proteolytic activity of native Asp f2” value (“effect of protease inhibitors … of native Asp f2” below) (native Asp f2 [1]) of the same molecule?
Answer: suppressed

Question: For `CCOC(=O)OC(=O)OCC` [DEPC, Diethylpyrocarbonate], which “proteolytic activity of recombinant Asp f2 (cleavage of FluHSA2) in the presence of DEPC” value (recombinant Asp f2; [3]) is on record?
Answer: inhibited; also recorded: inactive in the presence of DEPC

Question: What about the “proteolytic activity of native Asp f2 (cleavage of FluHSA2) in the presence of DEPC” value (native Asp f2 [1]; [3]) of the same molecule?
Answer: inhibited; also recorded: inactive in the presence of DEPC

Question: What does the source list for `O=C(O)CN(CCN(CC(=O)O)CC(=O)O)CC(=O)O` [EDTA, ethylenediaminetetraacetic acid]?
Answer: effect of protease inhibitors on proteolytic activity of recombinant Asp f2 (recombinant Asp f2): suppressed; effect of protease inhibitors on proteolytic activity of native Asp f2 (native Asp f2 [1]): suppressed

Question: How did the “effect of protease inhibitors on proteolytic activity of recombinant Asp f2” value (recombinant Asp f2) turn out when `NC(=O)CI` [IAA, iodoacetamide] was run?
Answer: did not inhibit

Question: And the “effect of protease inhibitors … of native Asp f2” value (native Asp f2 [1])?
Answer: did not inhibit

Question: For `O=S(=O)(F)Cc1ccccc1` [PMSF, phenylmethanesulfonylfluoride], which “effect of protease inhibitors on proteolytic activity of recombinant Asp f2” value (recombinant Asp f2) is on record?
Answer: did not inhibit

Question: And the “effect of protease inhibitors … of native Asp f2” value (native Asp f2 [1])?
Answer: did not inhibit

Question: How did the “effect of protease inhibitors on proteolytic activity of recombinant Asp f2” value (recombinant Asp f2) turn out when `c1ccc(CN(CCN(Cc2ccccn2)Cc2ccccn2)Cc2ccccn2)nc1` [TPEN, N,N,N′,N′-tetrakis (2-pyridylmethyl) ethylenediamine] was run?
Answer: suppressed

Question: What about the “effect of protease inhibitors … of native Asp f2” value (native Asp f2 [1]) of the same molecule?
Answer: suppressed

Question: Which “effect of protease inhibitors on proteolytic activity of recombinant Asp f2” value (recombinant Asp f2) does the source give for `CC(C)CC(=O)N[C@H](C(=O)N[C@H](C(=O)N[C@@H](CC(C)C)[C@@H](O)CC(=O)N[C@@H](C)C(=O)N[C@@H](CC(C)C)[C@@H](O)CC(=O)O)C(C)C)C(C)C` [pepstatin A] (Isovaleryl-VV[Sta]A[Sta]-OH) here?
Answer: did not inhibit

Question: What about the “effect of protease inhibitors … of native Asp f2” value (native Asp f2 [1]) of the same molecule?
Answer: did not inhibit

Question: What does the source list for “[5-Fam]-TKCATESAVNRRPCFSALK-[DABCYL] (5FAM-TKCATESAVNRRPCFSALK(DABCYL); disulfide 3-14 (inferred)) [FluHSA2]”?
Answer: number of cleavage products after reaction with native Asp f2 (MALDI) (native Asp f2 [2]): at least 5; specificity of cleavage by Asp f2 compared with Asp f3 (native Asp f2 [2]; FluHSA2 10 μM, 16 hours at 22° C.): high specificity for cleavage by Asp f2; number of cleavage sites on reaction with native Asp f2 (MALDI) (native Asp f2 [2]; sites near the C-terminus): four

Question: For aprotinin, which “effect of protease inhibitors on proteolytic activity of recombinant Asp f2” value (recombinant Asp f2) is on record?
Answer: did not inhibit

Question: What about the “effect of protease inhibitors … of native Asp f2” value (native Asp f2 [1]) of the same molecule?
Answer: did not inhibit

Question: collagen was tested. Which “degradation of fluorogenic protein substrate by native Asp f2” value (native Asp f2 [2]; 15 μg/mL, Asp f2 enriched on 5D7A1 beads) did it give?
Answer: capable of degrading

Question: Which “effect of protease inhibitors on proteolytic activity of recombinant Asp f2” value (recombinant Asp f2) does the source give for soybean trypsin inhibitor [SBTI] here?
Answer: did not inhibit

Question: And the “effect of protease inhibitors … of native Asp f2” value (native Asp f2 [1])?
Answer: did not inhibit
